Data on two compounds can be found in patent US20160310472A1, “PHARMACEUTICAL COMPOSITIONS COMPRISING SULBACTAM AND IMIPENEM” (priority 2013, published 2016).

One experiment deals with A. baumannii S-12 strain. Kind of experiment: Time-kill study, viable bacterial count in broth, A. baumannii S-12. The format is cell-based, Acinetobacter baumannii. As to the method: (§1) The antibacterial activity of compositions according to the invention against various bacterial strains was investigated. In a typical study, freshly grown cultures were diluted to required cell density (initial starting inoculum) in Brain Heart Infusion broth medium (BD, USA). The antibacterial agents (either alone or in combination) in required concentrations were added into the culture containing medium. The samples were incubated under shaking conditions (120 rpm) at 37° C. Enumeration of viable bacterial count was undertaken, every 2 hours, by diluting in normal saline and plating on to Tryptic Soya Agar plates (BD, USA). The plates were incubated for 24 hours to arrive at a viable bacterial count.

For experiment [1], the system named is A. baumannii S-224 strain. Kind of experiment: Time-kill study, viable bacterial count in broth, A. baumannii S-224. In kind it is cell-based, Acinetobacter baumannii. As to the method: as §1
A. baumannii S-224 strain expresses both Class D beta-lactamases (OXA-51 and OXA-23 like) and Class B metalo-beta-lactamases (NDM).

A further experiment deals with A. baumannii S-5 strain. Put plainly: Mouse Systemic Infection Model. The note with it: agent alone; Swiss albino mice, subcutaneous TID from 1 hour post infection, survival over 10 days.

Bounds are passed on as bounds.

For `C[C@@H](O)[C@H]1C(=O)N2C(C(=O)O)=C(SCCN=CN)C[C@H]12` [Imipenem], the Bacterial count in the experiment on A. baumannii S-12 strain (Imipenem 8 mcg/ml, 0 hour) amounted to 6.87 log CFU/ml; in the experiment with A. baumannii S-12 strain (Imipenem 8 mcg/ml, 2 hours), 7.69 log CFU/ml; in the experiment on A. baumannii S-12 strain (Imipenem 8 mcg/ml, 4 hours) it was 8.27 log CFU/ml; with A. baumannii S-12 strain (Imipenem 8 mcg/ml, 6 hours), 8.27 log CFU/ml; with A. baumannii S-12 strain (Imipenem 16 mcg/ml, 0 hour), 6.87 log CFU/ml; in the experiment on A. baumannii S-12 strain (Imipenem 16 mcg/ml, 2 hours), 7.69 log CFU/ml. In addition, the Bacterial count in the experiment on A. baumannii S-12 strain (Imipenem 16 mcg/ml, 4 hours) is on record as 8.11 log CFU/ml; in the experiment with A. baumannii S-12 strain (Imipenem 16 mcg/ml, 6 hours) it was 7.84 log CFU/ml; in experiment [1] (Imipenem 8 mcg/ml, 0 hour), 6.74 log CFU/ml; in experiment [1] (Imipenem 8 mcg/ml, 2 hours), 7.20 log CFU/ml; in experiment [1] (Imipenem 8 mcg/ml, 4 hours), 8.11 log CFU/ml; in experiment [1] (Imipenem 8 mcg/ml, 6 hours), 8.04 log CFU/ml. Moreover, the Bacterial count is listed as 6.74 log CFU/ml in experiment [1] (Imipenem 16 mcg/ml, 0 hour); 7.17 log CFU/ml in experiment [1] (Imipenem 16 mcg/ml, 2 hours); 8.04 log CFU/ml in experiment [1] (Imipenem 16 mcg/ml, 4 hours); 7.90 log CFU/ml in experiment [1] (Imipenem 16 mcg/ml, 6 hours). In the experiment with A. baumannii S-5 strain, this compound returned an ED50 of over 50 mg/kg body weight. In the experiment on A. baumannii S-5 strain, this compound displayed an ED90 of over 50 mg/kg body weight.
For the compound `CC1(C)[C@H](C(=O)O)N2C(=O)C[C@H]2S1(=O)=O` [Sulbactam], the “Decrease in number of colony forming units (in words)” value in the experiment on A. baumannii S-12 strain (S-12 strain) is “not observed”. Also, the Bacterial count worked out at 6.87 log CFU/ml with A. baumannii S-12 strain (Sulbactam 16 mcg/ml, 0 hour); 5.84 log CFU/ml in the experiment with A. baumannii S-12 strain (Sulbactam 16 mcg/ml, 2 hours); 5.27 log CFU/ml with A. baumannii S-12 strain (Sulbactam 16 mcg/ml, 4 hours); 6.23 log CFU/ml with A. baumannii S-12 strain (Sulbactam 16 mcg/ml, 6 hours); 6.74 log CFU/ml in experiment [1] (Sulbactam 16 mcg/ml, 0 hour); 6.65 log CFU/ml in experiment [1] (Sulbactam 16 mcg/ml, 2 hours). The Bacterial count in experiment [1] (Sulbactam 16 mcg/ml, 4 hours) turned out to be 7.17 log CFU/ml; in experiment [1] (Sulbactam 16 mcg/ml, 6 hours), 7.27 log CFU/ml.
